# ChEMBL document CHEMBL1255477, “In vitro properties of BAL30072, a novel siderophore sulfactam with activity against multiresistant gram-negative bacilli” (Antimicrob Agents Chemother, 2010)
# What was measured:
# Pseudomonas aeruginosa [1] = experiment: Antimicrobial activity against Pseudomonas aeruginosa BA(C2-107) selected after 25 ug/ml of compound exposure by broth dilution method; format: functional
# Pseudomonas aeruginosa [2] = experiment: Antimicrobial activity against mexAB-oprM, mexCD-oprJ, mexEF-oprN, mexJK, mexXY, opmH and pscC gene deficient Pseudomonas aeruginosa PAO750 by broth dilution method; format: functional
# Pseudomonas aeruginosa [3] = experiment: Antimicrobial activity against mexAB-oprM protein and mexCD-oprJ deficient Pseudomonas aeruginosa PAO253 overexpressing MexEF-OprN gene by broth dilution method; format: functional
# Pseudomonas aeruginosa [4] = experiment: Antimicrobial activity against Pseudomonas aeruginosa B4 by broth dilution method; format: functional
# Pseudomonas aeruginosa [5] = conditions: PAO1
# Description: Antimicrobial activity against Pseudomonas aeruginosa PAO1 by broth dilution method
# Pseudomonas aeruginosa [6] = experiment: Antimicrobial activity against mexAB-oprM protein and mexZ deficient Pseudomonas aeruginosa PAO267 by broth dilution method; format: functional
# Pseudomonas aeruginosa [7] = experiment: Antimicrobial activity against Pseudomonas aeruginosa BA by broth dilution method; format: functional
# Pseudomonas aeruginosa [8] = experiment: Antimicrobial activity against oprD protein deficient Pseudomonas aeruginosa C2 by broth dilution method; format: functional
# Pseudomonas aeruginosa [9] = experiment: Antimicrobial activity against Pseudomonas aeruginosa BA(C1-106) selected after 25 ug/ml of compound exposure by broth dilution method; format: functional
# Pseudomonas aeruginosa [10] = experiment: Antimicrobial activity against mexAB-oprM protein and mexCD-oprJ deficient Pseudomonas aeruginosa PAO238 by broth dilution method; format: functional
# Acinetobacter sp. = experiment: Antimicrobial activity against Acinetobacter sp. by broth dilution method; format: functional
# Pseudomonas aeruginosa [11] = experiment: Antimicrobial activity against Pseudomonas aeruginosa by broth dilution method; format: functional
# [12] = substrate: C[C@H]1[C@H](NC(=O)/C(=N\OC(C)(C)C(=O)O)c2csc(N)n2)C(=O)N1S(=O)(=O)O; conditions: Escherichia coli; ATCC 25922
# Description: (§1) Ratio of Kcat to Km for Escherichia coli ATCC 25922 AmpC
# [13] = substrate: CC1(C)[C@H](NC(=O)/C(=N\OCc2cc(=O)c(O)cn2O)c2csc(N)n2)C(=O)N1OS(=O)(=O)O; conditions: Escherichia coli; ATCC 25922
# Description: as §1
# [14] = substrate: C[C@H]1[C@H](NC(=O)/C(=N\OC(C)(C)C(=O)O)c2csc(N)n2)C(=O)N1S(=O)(=O)O; conditions: Escherichia coli; ATCC 25922; remark: listed apart in the source
# Description: (§2) Binding affinity to Escherichia coli ATCC 25922 AmpC
# [15] = substrate: CC1(C)[C@H](NC(=O)/C(=N\OCc2cc(=O)c(O)cn2O)c2csc(N)n2)C(=O)N1OS(=O)(=O)O; conditions: Escherichia coli; ATCC 25922; remark: listed apart in the source
# Description: as §2
Molecule,MIC (Pseudomonas aeruginosa [1]),MIC (Pseudomonas aeruginosa [2]),MIC (Pseudomonas aeruginosa [3]),MIC (Pseudomonas aeruginosa [4]),MIC (Pseudomonas aeruginosa [5]),MIC (Pseudomonas aeruginosa [6]),MIC (Pseudomonas aeruginosa [7]),MIC (Pseudomonas aeruginosa [8]),MIC (Pseudomonas aeruginosa [9]),MIC (Pseudomonas aeruginosa [10]),MIC50 (Acinetobacter sp.),MIC90 (Acinetobacter sp.),MIC50 (Pseudomonas aeruginosa [11]),MIC90 (Pseudomonas aeruginosa [11]),kcat/Km [12],kcat/Km [13],Km [14],kcat [14],Km [15],kcat [15]
POLYMYXIN B,4 µg/mL,8 µg/mL,4 µg/mL,2 µg/mL,8 µg/mL,8 µg/mL,4 µg/mL,4 µg/mL,2 µg/mL,8 µg/mL,4 µg/mL,32 µg/mL,4 µg/mL,8 µg/mL,,,,,,
"MFKTTLCALLITASCSTFAA [AmpC (Escherichia coli), Q83TT7]",,,,,,,,,,,,,,,2.9 M⁻¹ s⁻¹,38 M⁻¹ s⁻¹,21 µM,6e-05 s⁻¹,100 µM,0.004 s⁻¹
